# From patent US20120213764A1, “NOVEL METHOD FOR THE PRODUCTION OF A ANTIMICROBIAL PEPTIDE” (B.R.A.I.N. BIOTECHNOLOGY RESEARCH AND INFORMATION NETWORK AG, priority 2009, published 2012)
# Legend:
# [1] = test system: Escherichia coli and Staphylococcus aureus; assay: Antimicrobial activity assay-1, colony-forming units (CFU) assay; assay type: cell-based; conditions: for reduction of bacteria (colony-forming units): 50-100 μg/ml peptide, 37° C. for 2-4 hours, 10 mM sodium phosphate buffer/10 mM NaCl pH 7.0
# Protocol: Antimicrobial assays were performed using the colony-forming units (CFU) assay as previously described. The antibacterial activity of DCD-derived peptides was tested against the following bacterial strains: Escherichia coli and Staphylococcus aureus. Bacterial cultures were grown to mid-exponential growth phase and washed three times with 10 mM sodium phosphate buffer/10 mM NaCl (pH 7.0). Bacterial concentration was estimated photometrically at 600 nm. Absorbance of 1.0 corresponded to 8.56×10^8/ml for E. coli, 1.97×10^8/ml for S. aureus.
# After dilution to a concentration of 10^6 CFU/ml, 10 μl of the dilutions were incubated at 37° C. for 2-4 hours with the respective peptide diluted in water in a total volume of 30 μl in 10 mM sodium phosphate buffer containing 10 mM NaCl (pH 7.0). After incubation, cells were diluted 1:100 in 10 mM sodium phosphate buffer containing 10 mM NaCl (pH 7.0) and 90 μl of the diluted bacterial suspension were plated in triplicates on blood agar. Bacterial colonies were counted after incubation for 18-24 hours at 37° C. The antimicrobial activity was calculated using [(cell survival after peptide incubation)/(cell survival in buffer without peptide)×100]. The LC90 describes the lethal concentration of the current peptide in μg/ml or M which leads to 90% reduction of colony-forming units compared to the buffer control. The assay was carried out with 50-100 μg/ml DCD1L and DCD1.
# [2] = test system: Escherichia coli, Staphylococcus aureus, and Micrococcus luteus; assay: Antimicrobial activity assay-2, zone of inhibition on LB agar; assay type: cell-based; conditions: peptide in 40% ACN/0.06% FA spotted in 10 μl on LB agar, 37° C. over night; FIG. 4 against S. aureus
# Protocol: DCD1 was dissolved in 0.06% FA (2-5) or 40% ACN/0.06% FA (7-10). 1. 0.06% FA; 2. 5 μg DCD1; 3. 10 μg DCD1; 4. 30 μg DCD1; 5. 60 μg DCD1; 6.40% ACN/0.06% FA; 7. 5 μg DCD1; 8. 10 μg DCD1; 9. 30 μg DCD1; 10. 60 μg DCD1.
# (§1) The antimicrobial activity of DCD1 and DCD1L peptides were tested against the following bacterial strains: Escherichia coli, Staphylococcus aureus, and Micrococcus luteus, isolated from skin. Bacterial cultures were grown to mid-exponential growth phase and bacterial concentration was estimated photometrically at 578 nm. Absorbance of 1.0 corresponded to 8.56×10^8/ml for E. coli, 1.97×10^8/ml for S. aureus. After dilution to a concentration of OD578nm 0.01 (˜10^6 CFU/ml), 100 μl of the cells were plated on LB agar. Afterwards different concentrations of the peptide dissolved in 40% ACN/0.06% FA were spotted on the plates in a total volume of 10 μl. As control 10 μl of 40% ACN/0.06% FA was used. The plates were incubated at 37° C. over night. After incubation the zone of inhibition was determined and the antimicrobial activity was calculated in dependence on the peptide concentration.
# S. aureus = assay: Antimicrobial activity assay-2 with in vivo produced DCD1; assay type: cell-based; conditions: ~28 μg spotted, in 40% ACN/0.06% FA, S. aureus OD578nm 0.01 on LB agar
# Protocol: DCD1 was dissolved in 40% ACN/0.06% FA. 1. 24 μg recombinantly produced DCD1 2. 24 μg in vivo produced DCD1; 3. 10 μl 40% ACN/0.06% FA;
# as §1
# To determine the antimicrobial activity, the in vivo produced DCD1 was lyophilized and dissolved in 40% ACN/0.06% FA. For testing its activity ˜28 μg DCD1 was spotted in LB agar plates containing 100 μl S. aureus (OD578nm 0.01) (see chapter Antimicrobial activity assay—2). As control 40% ACN/0.06% FA was spotted.
# [3] = test system: E. coli, methicillin-resistant Staphylococcus aureus, Staphylococcus epidermidis and Candida albicans; conditions: cited from earlier work
# [4] = parameters: species or system human; conditions: in vivo
# Protocol: Line 1-3: DCD1L dissolved in 300 mM NaCl, 10 mM NaH2PO4, pH 4.0 and incubated on skin for 0, 2 and 4 hours; Line 4-6: DCD1L dissolved in 300 mM NaCl, 10 mM NaH2PO4, pH 6.5 and incubated on skin for 0, 2 and 4 hours; […] and incubated on skin for 0, 2 and 4 hours. As controls are the recombinantly produced DCD1 and DCD1L peptides.
# (A) 2 h, (B) 4 h, (C) 19 h. A total ion count chromatogram […] is shown in black and two single ion chromatograms for m/z 785 and m/z 805 corresponding to DCD1 and DCD1L respectively are shown.
# For testing in vivo processing, the DCD1L peptide was dissolved in buffers (300 mM NaCl, 10 mM NaH2PO4) varying in pH (4, 6.5, and 9) and incubated on forearm. Therefore a construction composed of cardboard containing five ceramic rings was created. This construction was fixed on forearm with tape and ceramic rings were filled with 100 μl (˜140 μg) DCD1L. Finally an elastic foil was used to surround the whole construction. The incubation on skin varied from one to four hours before removing the samples from skin. Afterwards the peptide samples were analyzed by SDS PAGE (FIG. 5) and HPLC-MS (FIGS. 6 A and B) and also further incubated at room temperature in vitro (FIG. 6 C). […] This kind of processing was also analyzed by SDS PAGE and HPLC-MS.
Substance,reduction of bacteria (colony-forming units) [1],antimicrobial activity (zone of inhibition) [2],antimicrobial activity (inhibition zone) of DCD1 produced from DCD1L on skin (S. aureus),antimicrobial activity against several microorganisms [3],"antimicrobial activity (inventors' finding, summary statement) ([1]; no conditions given at the place)",conversion of DCD1L into DCD1 ([4]; pH 4),incubation time after which processing of DCD1L to DCD1 was complete ([4]; pH 9) [h]
"DCD1: 47 aa peptide, amino acids 63 to 109 of dermcidin, recombinantly produced or formed from DCD1L on skin (SSLLEKGLDGAKKAVGGLGKLGKDAVEDLESVGKGAVHDVKDVLDSV; homo sapiens)",led to a reduction of diverse bacteria,activity emanating from DCD1 was detectable,is antimicrobial active,have antimicrobial activity,–,–,–
"DCD1L: 48 aa peptide, amino acids 63 to 110 of dermcidin, recombinantly produced (SSLLEKGLDGAKKAVGGLGKLGKDAVEDLESVGKGAVHDVKDVLDSVL; homo sapiens)",only the addition of DCD1 led to a reduction of diverse bacteria,only activity emanating from DCD1 was detectable,–,have antimicrobial activity,does not have antimicrobial activity,always converted into DCD1 in a pH- and time-dependent manner,16
SEQ ID NO: 4: peptide of amino acids 63 to 87 of dermcidin (SSLLEKGLDGAKKAVGGLGKLGKDA; homo sapiens),–,–,–,have antimicrobial activity,–,–,–
SEQ ID NO: 5: peptide of amino acids 63 to 85 of dermcidin (SSLLEKGLDGAKKAVGGLGKLGK; homo sapiens),–,–,–,have antimicrobial activity,–,–,–
